Assay results taken from patent publication US6897028B1, “Identification of molecular targets” (Florida State University, priority 1997, dated 2005).

What was measured:
Bcl-2/GST fusion protein [1] = molecular target: T1, Bcl-2/GST fusion protein (Homo sapiens, UniProt P10415); assay: ELISA binding of Bcl-2/GST fusion protein to immobilized biotinylated taxane; conditions: confirmation of binding of Bcl-2 to taxol
Source text: ELISA binding assays were used to determine if the Bcl-2/GST fusion protein binds directly to immobilized biotinylated taxol. Anti-Bcl-2 antibodies were used to detect Bcl-2 binding. […] The x-axis is the log nM concentration of protein in solution (Bcl-2 or Bcl-XL); the y-axis is the uncorrected optical density at 490 nm. The insert is the chemical structure of the biotinylated taxol used in the selection of peptides.

[2] = test system: 697 human acute leukemia pre-B cells; conditions: 697 cells; cited from earlier work
Bcl-2/GST fusion protein [3] = molecular target: T1, Bcl-2/GST fusion protein; assay: Circular dichroism spectroscopy of Bcl-2/GST with and without taxol; assay type: binding
Source text: Each spectrum is the averaged result of five spectra and subtracted baselines with standard deviations as indicated. These differences are much larger than the error bars (standard deviations) in the measurements, and involve a change in both the shape of the curve (ratio of the 220/210 nm peaks) and the peak positions. The secondary structures calculated for the Bcl-2 fusion protein with and without taxol differ by approximately 4%, and appear to involve a change in a region of the molecule that is found in a beta-turn conformation. This corresponds to the type of secondary structure which is predicted for the HTPHP-containing portion of the Bcl-2 loop region (SEQ. ID No. 3). […] Homology between TAX2.29 and human Bcl-2 lies between positions 1 through 12 and residues 55 through 66 respectively, inferring a minimum drug/protein interaction of at least twelve amino acids.

GST = GST (Schistosoma japonicum, UniProt P08515); assay: Circular dichroism control: purified GST with and without taxol; assay type: binding; conditions: GST alone
Experimental: In a control experiment, taxol was added to purified GST from S. japonicum. […] The differences are far smaller than the error bars, and there is no change in the 220/210 nm ratio, nor is a peak shift observed. This means that were there any net structural change within the GST molecule alone, it would involve less than 0.5% of its total secondary structure. […] Furthermore, this binding has significant structural consequences for the Bcl-2 protein, involving approximately 15% to 20% of the loop residues.

human LIF = human LIF (Homo sapiens, UniProt P15018); assay: ELISA binding of biotinylated dioxin to LIF; conditions: species not given
Experimental: The applicants utilized the same biotinylated dioxin as Petrenko in an ELISA assay for binding to LIF, to several mutants of the LIF protein changed in the EPFP homology domain (residues 50-53), to anti-dioxin antibodies as a positive control, and to ciliary neurotrophic factor (CNTF) (structurally similar to LIF but lacking the SEQ. ID NO. 5 motif) as a negative control. […] to human and murine LIF with a KD of approximately 10-100 μM, indicating an affinity approximately 10,000 fold less than the anti-dioxin antibodies used as a positive control.

T1 sequence (P10415 whole entry, the tested form may be a part): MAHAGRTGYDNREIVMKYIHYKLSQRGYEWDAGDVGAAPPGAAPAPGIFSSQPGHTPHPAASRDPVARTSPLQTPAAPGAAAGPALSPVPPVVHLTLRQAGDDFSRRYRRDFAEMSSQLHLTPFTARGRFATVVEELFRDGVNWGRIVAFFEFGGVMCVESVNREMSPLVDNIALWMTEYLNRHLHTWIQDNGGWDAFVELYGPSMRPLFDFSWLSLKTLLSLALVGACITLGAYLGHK
Chain of GST (P08515 whole entry): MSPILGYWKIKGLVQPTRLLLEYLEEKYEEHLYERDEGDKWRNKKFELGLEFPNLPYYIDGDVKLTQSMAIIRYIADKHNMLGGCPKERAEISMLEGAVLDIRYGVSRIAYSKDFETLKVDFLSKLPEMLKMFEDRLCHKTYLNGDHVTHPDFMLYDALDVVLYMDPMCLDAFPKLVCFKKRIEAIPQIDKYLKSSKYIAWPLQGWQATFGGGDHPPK
Chain of human LIF (P15018 23-202): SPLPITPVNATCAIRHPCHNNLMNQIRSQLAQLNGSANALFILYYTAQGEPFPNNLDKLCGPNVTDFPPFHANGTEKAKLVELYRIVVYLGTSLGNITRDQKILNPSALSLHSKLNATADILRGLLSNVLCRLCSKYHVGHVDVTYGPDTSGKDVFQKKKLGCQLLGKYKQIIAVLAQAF

| SMILES | binding affinity in words (Bcl-2/GST fusion protein [1]) | apoptosis [2] | phosphorylation of Bcl-2 [2] | difference in calculated secondary structure with and without taxol (Bcl-2/GST fusion protein [3]; CD, beta-turn region) | conformational change upon binding taxol (CD spectrum) (Bcl-2/GST fusion protein [3]; spectra with and without taxol) | CD spectra with and without taxol (GST) | net structural change as share of total secondary structure (GST) | binding affinity in words (human LIF) |
| --- | --- | --- | --- | --- | --- | --- | --- | --- |
| CC(=O)O[C@H]1C(=O)[C@@]2(C)[C@H]([C@H](OC(=O)c3ccccc3)[C@]3(O)C[C@H](OC(=O)[C@H](O)[C@@H](NC(=O)c4ccccc4)c4ccccc4)C(C)=C1C3(C)C)[C@]1(OC(C)=O)CO[C@@H]1C[C@@H]2O [taxol] | micromolar affinity | induces | induces | approximately 4% | substantial conformational change | virtually identical | less than 0.5% | – |
| C1=COC=CO1 [dioxin] | – | – | – | – | – | – | – | at least micromolar affinity |
| CC(=O)O[C@@]12CO[C@@H]1C[C@H](O)[C@@]1(C)C(=O)[C@H](O)C3=C(C)[C@@H](OC(=O)[C@H](O)[C@@H](NC(=O)OC(C)(C)C)c4ccccc4)C[C@@](O)([C@@H](OC(=O)c4ccccc4)[C@H]21)C3(C)C [taxotere] | – | induces | induces | – | – | – | – | – |
